We go through six molecules from patent US11738087B2, “Lymph directing prodrugs” (Monash University, priority 2015, dated 2023).

Bounds are passed on as bounds.

Data set [1] has as its system porcine pancreatic lipase. In words: In vitro hydrolysis of compounds by porcine pancreatic lipase (stability of monoglyceride forms). The data set is classed as in vitro ADME. To be noted: simulated intestinal micellar solution, pH 6.5, 37° C., up to 180 minutes; FIG. 9. Here is the method: In vitro hydrolysis of testosterone prodrugs was performed via incubation with porcine pancreatic lipase. Briefly, pancreatic lipase solution was prepared prior to the hydrolysis experiment by dispersion of 1 g porcine pancreatin in 5 ml of lipolysis buffer. The suspension was mixed well and centrifuged at 3500 rpm for 15 minutes at 5° C. to provide a supernatant. An amount of 1000 ml of lipolysis buffer was prepared with 0.474 g of tris-maleate (2 mM), 0.206 g of CaCl2·H2O (1.4 mM) and 8.775 g of NaCl (150 mM) adjusted with NaOH to pH 6.5. To assess the potential for prodrug hydrolysis in the intestine, 20 μl of prodrug solution (1 mg/ml dissolved in acetonitrile), 900 μl of simulated intestinal micellar solution [prepared with 0.783 g of NaTDC (3 mM) and 0.291 g of phosphatidyl choline (0.75 mM) in 500 ml lipolysis buffer] and 100 μl of enzyme solution were incubated at 37° C. […] The supernatant was analysed by HPLC-MS for residual compound concentrations, and the potential products of compound hydrolysis were analysed.
On incubation with digestive enzymes, the monoglycerides forms of the prodrugs are formed very rapidly. The stability in simulated intestinal conditions is therefore better assessed by the stability of the monoglycerides form that is generated by the initial digestion process. […]

Data set [2] is described as follows: Pharmacokinetic (PK) studies in rats after oral gavage (plasma free parent drug). Particulars: for AUC0-24 h fold increase compared with TU group: plasma testosterone exposure; for Tmax / AUC0-24 h: plasma testosterone, mean ± SEM; for AUC0-24 h: normalized to 2 mg/kg equivalent testosterone dose; for Cmax: read-out: Cmax (nmol/L), plasma testosterone, conscious carotid artery cannulated SD female rats, normalized to 2 mg/kg equivalent testosterone dose, mean ± SEM.

The nature of data set [3]: Lymphatic transport studies in rats (mesenteric lymph duct cannulated, intraduodenal infusion). To be noted: for Transport of total TST derivatives in lymph (% of dose): intraduodenal infusion, anaesthetised, mesenteric lymph-duct cannulated female SD rats, mean ± SEM (n≥3) or mean ± range (n=2); for Fold increase (compared with control group dosed with TU): lymphatic transport, testosterone series, female SD rats.

A further data set relates to lipoprotein lipase (LPL). In words: In vitro release of MPA from prodrugs in rat lymph supplemented with lipoprotein lipase. The class given is in vitro ADME. Particulars: LPL 200 unit/ml, 37° C., n=1; FIG. 10. Here is the method:
In order to probe the release of free MPA from TG prodrugs in the lymphatics (the active site of MPA is in lymphocytes that are enriched in the lymphatic system), MPA prodrugs were incubated with rat lymph supplemented with lipoprotein lipase (LPL, 200 unit/ml). LPL is a key enzyme required for the hydrolysis of lipoprotein associated TG in normal physiological conditions and is therefore expected to be a key contributor to lipolysis of the re-esterified Drug-TG construct in plasma, largely via liberation of FAs in the sn-1 and the sn-3 position of the TG-mimetic, prior to drug release from the 2′ positon via esterase hydrolysis. LPL is tethered to lymphocytes or lymphatic/vascular endothelial cells under physiological conditions. In the current in vitro studies, rat lymph was therefore supplemented with LPL to better reflect the in vivo situation. To start hydrolysis, 10 μl of LPL solution (10,000 unit/ml) was added to a mixture of 10 μl of prodrug solution (1 mg/ml dissolved in acetonitrile) and 500 μl of blank Sprague Dawley rat lymph. The solution was incubated at 37° C. Samples (20 μl) of the incubation solution were taken at 0, 5, 10, 15, 30, 60, 90, 120 and 180 minutes post incubation and added to 980 μl of 9:1 (v/v) ACN-water to stop lipolysis. […] The supernatant was analysed by HPLC-MS/MS for MPA concentrations.

For data set [4] the following is noted: 'is thought to be'; cited from earlier work.

What is called Tmax is the time at which the peak concentration occurs.

For the molecule “1-(1,3-Bis(palmitoyloxy)propan-2-yl) 4-((((8R,9S,10R,13S,14S,17S)-10,13-dimethyl-3-oxo-2,3,6,7,8,9,10,11,12,13,14,15,16,17-tetradecahydro-1H-cyclopenta[a]phen-anthren-17-yl)oxy)methyl) 2/3-methylsuccinate [Compounds 13/14]”, the “Stability of the monoglyceride form during in vitro incubation with porcine pancreatic lipase” value in data set [1] was “much more stable”. Moreover, in data set [2] (SD female rats), the “Systemic exposure of testosterone, fold higher than Compound 12” value is ~13 fold; the “AUC0-24 h fold increase compared with TU group” value was found to be 94.6; the time of peak concentration (Tmax) was 1.4 ± 0.1 h; the “AUC0-24 h” value was 0.6453 ± 0.1449 µM·h. In data set [2], the Cmax was 568 ± 155 nmol/L. In data set [3], the “Transport of total TST derivatives in lymph (% of dose)” value (from here on “Transport … (% of dose)”) was 8.0 ± 2.5 % of dose and the “Fold increase (compared with control group dosed with TU)” value amounted to 4.2.

Take `CCCCCCCCCCCCCCCC(=O)OCC(COC(=O)CCCCCCCCCCCCCCC)OC(=O)CC(C)CC(=O)OCOC(=O)CC/C(C)=C/Cc1c(O)c2c(c(C)c1OC)COC2=O` (stereo not shown) [Compound 10, (E)-1-(1,3-Bis(palmitoyloxy)propan-2-yl) 5-(((6-(4-hydroxy-6-methoxy-7-methyl-3-oxo-1,3-dihydroisobenzofuran-5-yl)-4-methylhex-4-enoyl)oxy)methyl) 3-methyl-pentanedioate]: in the data set on lipoprotein lipase (LPL), the “Release of MPA on incubation with LPL supplemented rat lymph” value is on record as “very rapid”.

Take `CCCCCCCCCCCCCCCC(=O)OCC(COC(=O)CCCCCCCCCCCCCCC)OC(=O)CC(C)CC(=O)OC(C)OC(=O)CC/C(C)=C/Cc1c(O)c2c(c(C)c1OC)COC2=O` (stereo not shown) [Compound 11, (E)-1-(1,3-Bis(palmitoyloxy)propan-2-yl) 5-(1-((6-(4-hydroxy-6-methoxy-7-methyl-3-oxo-1,3-dihydroisobenzofuran-5-yl)-4-methylhex-4-enoyl)oxy)ethyl) 3-methylpentanedioate]: the “Release of MPA on incubation with LPL supplemented rat lymph” value with lipoprotein lipase (LPL) is reported as “very rapid”.

In the case of `CCCCCCCCCCCCCCCC(=O)OCC(COC(=O)CCCCCCCCCCCCCCC)OC(=O)CCC(=O)OCO[C@H]1CC[C@H]2[C@@H]3CCC4=CC(=O)CC[C@]4(C)[C@H]3CC[C@]12C` [Compound 12, 1,3-Bis(palmitoyloxy)propan-2-yl ((((8R,9S,10R,13S,14S,17S)-10,13-dimethyl-3-oxo-2,3,6,7,8,9,10,11,12,13,14,15,16,17-tetradecahydro-1H-cyclopenta[a]phenanthren-17-yl)oxy)methyl) succinate], the “Stability of the monoglyceride form during in vitro incubation with porcine pancreatic lipase” value in data set [1] was “labile”.

For the molecule `CCCCCCCCCCC(=O)O[C@H]1CC[C@H]2[C@@H]3CCC4=CC(=O)CC[C@]4(C)[C@H]3CC[C@]12C` [TU, testosterone undecanoate, reference compound], in data set [4], the “Bioavailability of testosterone after oral administration of the undecanoate ester” value was < 5%. Also, in data set [2] (SD female rats), the “AUC0-24 h fold increase compared with TU group” value is reported as 1.0, the “Tmax” value is 1.5 ± 0.0 h and the “AUC0-24 h” value worked out at 0.0068 ± 0.0004 µM·h. The Cmax in data set [2] is 5.6 ± 0.5 nmol/L. In data set [3], the “Transport … (% of dose)” value was 1.9 ± 0.3 % of dose and the “Fold increase (compared with control group dosed with TU)” value turned out to be 1.0.

Take `C[C@]12CC[C@H]3[C@@H](CCC4=CC(=O)CC[C@@]43C)[C@@H]1CC[C@@H]2O` [Testosterone, testosterone]: in data set [3], the “Transport … (% of dose)” value is given as “Below LOQ*”.
